Patent US6630125B2, “18F-labeled choline analogs” (priority 2000, dated 2003)
Read-outs that look alike come from different tables or passages of the source.

How the values were obtained:
[1] = system: PC-3 human prostate cancer cells; assay: Accumulation of radiotracers by cultured PC-3 cells; format: cell-based; conditions: for Uptake by PC-3 cancer cells, HC-3: 5 mM hemicholinium-3; for accumulation by cultured PC-3 cells compared with other tracers: control conditions; for Uptake by PC-3 cancer cells, Control: 2 hr incubation
Description: The incubation media utilized for the experiments differed according to the cancer cell type (Table 1). On the day of the study, the medium was refreshed using a volume of 1 ml in each well. Cells were incubated in control conditions or with the addition of metabolic and growth factor receptor inhibitors to test the sensitivity of uptake of the radiotracers to specific inhibitions. […] Following a 30-min incubation period, the radiotracers (e.g., FDG or FCH) were added (˜2 µCi/well) and the cells were incubated for 2 hr. The cells were washed three times with phosphate buffered saline solution, released from the plates by briefly incubating with 0.05% trypsin in DMEM, transferred to test tubes, and counted for F-18 radioactivity in a gamma counter. The amount of radioactivity in the cells was normalized by the dose administered to each well.
The present work studies the structure-activity relationships for purposes of optimization of the molecule for imaging prostate cancer. […] A number of structural analogs of choline were labeled as N-[^18F]fluoromethyl derivatives via the intermediate [^18F]fluorobromomethane (see Table 3). Uptake of the radiotracers was assessed in cultured PC-3 human prostate cancer cells and in a murine PC-3 xenograft model.

[2] = system: mice with PC-3 xenografts; conditions: for tumor uptake: PC-3 xenograft
Description: Body weight and tumor volume were measured weekly and tumor volume (mm3) was calculated using the formula S2×L/2, where S and L represent the small and large diameters of the tumor, respectively.
A prescribed duration of time was allowed before procurement of heart, liver, lung, blood, kidney, bone (femur), brain (whole), prostate gland, tumor, bladder, and skeletal muscle. The tissues were weighed, and counted for ^18F in a gamma counter, then dissolved in Solvable (Dupont, Boston Mass.) and counted for ^14C in a liquid scintillation counter. For the bladder, the percentage of the injected dose in the urine was determined. For all other tissues, radiotracer uptake was calculated as: […]

[3] = system: patients with prostate cancer; assay: PET imaging in patients with prostate cancer; conditions: Example 11 patient, metastatic prostate cancer
Description: The distribution of FCH in PET imaging studies was evaluated in 14 patients with prostate cancer, 14 patients with breast cancer, and 5 patients with brain tumors. Imaging was performed using the Advance PET scanner (GE Medical Systems, Milwaukee, Wis.). […] In prostate cancer patients, a transmission scan of the pelvic region was obtained before administration of radiotracer. FCH (2.5-5 mCi) was administered intravenously, and dynamic imaging of the pelvis region was commenced for 20-30 min. During image reconstruction, the emission data in the pelvic region were corrected for photon attenuation using the transmission scan. Immediately following the dynamic scan, a whole-body emission scan was performed without transmission scanning for attenuation correction. The images were reconstructed using an Ordered Subset Expectation Maximum (OS-EM) algorithm. Regions-of-interest were drawn manually on the attenuation corrected images for evaluation of FCH kinetics in tissues. Standardized uptake values of FCH uptake in tissues were calculated using the attenuation-corrected images according to the equation: [formula]
Patient 2: Transmission and FCH emission scans of a person with hormone naive clinical stage T2 prostate cancer were commenced over the lower pelvis.
The same patient was scanned with FDG within the same week (FIG. 8).
Patient 4: A person with a history of clinical stage T3b prostate cancer treated by radical retropubic prostatectomy was diagnosed with metastatic disease by bone scan. FCH-PET imaging was performed before and after initiating androgen deprivation therapy. In the first study, whole-body emission scanning was started 5 min after injection, beginning at the pelvic region in order to image the pelvis and prostatic bed before arrival of urinary radioactivity. […] The patient was rescanned 2 weeks after initiating androgen deprivation therapy.
Patient 5: A person was initially diagnosed five years prior with locally advanced clinical stage T3NOMO prostate cancer and underwent radical prostatectomy followed by external beam radiation to the prostate bed. […] The patient was then treated with Zolex and Casodex.

[4] = target: T1, yeast choline kinase (Saccharomyces cerevisiae, UniProt P20485); assay: In vitro phosphorylation by yeast choline kinase; format: biochemical; conditions: 1 μM choline; for In vitro phosphorylation: 25 mU/ml yeast choline kinase, 23° C., 10 min, n = 5
T1 sequence (P20485 1-582): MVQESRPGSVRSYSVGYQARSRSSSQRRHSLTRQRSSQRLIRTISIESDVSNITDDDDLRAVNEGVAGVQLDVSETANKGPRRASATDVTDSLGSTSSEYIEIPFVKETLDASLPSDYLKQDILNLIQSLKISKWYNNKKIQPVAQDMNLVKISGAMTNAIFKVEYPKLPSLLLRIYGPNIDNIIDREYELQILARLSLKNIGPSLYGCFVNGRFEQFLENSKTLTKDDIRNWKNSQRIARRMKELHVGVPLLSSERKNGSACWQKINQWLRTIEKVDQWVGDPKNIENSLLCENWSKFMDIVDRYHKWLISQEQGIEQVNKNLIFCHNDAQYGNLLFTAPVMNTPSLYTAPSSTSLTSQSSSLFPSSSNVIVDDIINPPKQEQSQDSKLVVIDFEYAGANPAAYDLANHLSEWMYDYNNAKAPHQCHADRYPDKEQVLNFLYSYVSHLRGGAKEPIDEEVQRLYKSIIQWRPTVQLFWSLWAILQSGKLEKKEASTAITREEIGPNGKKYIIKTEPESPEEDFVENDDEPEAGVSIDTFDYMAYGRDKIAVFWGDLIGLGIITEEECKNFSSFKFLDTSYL
Description: The test tube was gently agitated throughout the incubation period. The reaction was stopped by placing the tube in a boiling water bath for 2 min. To serve as controls, some samples were placed directly in the boiling water bath after addition of all substrates. […] The percentage of radioactivity converted to the phosphorylated form was calculated.

[5] = inhibitor HC-3 (hemicholinium-3, 5 mM)

Structure (SMILES): [2H]C([2H])(O)C[N+](C)(C)C[18F] [FDC]
- Uptake by PC-3 cells ([1]; inhibitor none): 2.410 ± 0.144 % dose/2 hr/10^5 cells plated
- Tumor:muscle ratio ([2]; 60 min after injection): highest
- tumor:blood ratio ([2]; 60 min after injection): highest
- SUV of osseous lesion (pubic ramus) [3]: 11.7

Structure (SMILES): CCC[N+](C)(C[18F])CCCO (stereo not shown) [Propyl-prop.]
- Uptake by PC-3 cells ([1]; inhibitor none): 0.234 ± 0.050 % dose/2 hr/10^5 cells plated

Structure (SMILES): CCC[N+](C)(C[18F])CCO (stereo not shown) [FPrC]
- uptake in cultured PC-3 cells [1]: ~2 %/hr/100,000 cells plated
- Uptake by PC-3 cells [1, 5]: 0.062 ± 0.001 % dose/2 hr/10^5 cells plated
- Uptake by PC-3 cells ([1]; inhibitor none): 1.877 ± 0.115 % dose/2 hr/10^5 cells plated
- tumor uptake [2]: ~0.07 % dose kg/g

Structure (SMILES): C[N+](C)(CCO)CCC[18F] [FPC, [^18F]fluoropropylcholine]
- Uptake by PC-3 cancer cells, HC-3 [1]: 0.76 ± 0.20 % dose/2 hr/105 cells plated
- decrease in uptake by PC-3 cells with hemicholinium-3 (HC-3) ([1]; HC-3 versus control): 41%
- accumulation by cultured PC-3 cells compared with other tracers [1]: not significantly different from that of FCH
- Uptake by PC-3 cancer cells, Control [1]: 1.29 ± 0.28 % dose/2 hr/105 cells plated
- phosphorylation rate, less than for FCH [4]: ~60%
- In vitro phosphorylation [4]: 22.1 ± 3.1 %

Structure (SMILES): C[N+]1(C[18F])CCCC(O)C1 (stereo not shown) [cyclic N—OH]
- Uptake by PC-3 cells ([1]; inhibitor none): 0.077 ± 0.011 % dose/2 hr/10^5 cells plated

Structure (SMILES): CCCCC[N+](C)(C[18F])CCO (stereo not shown) [Pentyl]
- Uptake by PC-3 cells ([1]; inhibitor none): 0.073 ± 0.007 % dose/2 hr/10^5 cells plated

Structure (SMILES): C#CC[N+](C)(C[18F])CCO (stereo not shown) [FPP]
- Uptake by PC-3 cells ([1]; inhibitor none): 7.90 ± 0.53 % dose/2 hr/10^5 cells plated

Structure (SMILES): [2H]C([2H])(O)CC[N+](C)(C)C[18F] [propanol - D]
- Uptake by PC-3 cells [1]: 0.763 ± 0.065 % dose/2 hr/10^5 cells plated

Structure (SMILES): C=CC[N+](C)(C[18F])CCO (stereo not shown) [Allyl]
- Uptake by PC-3 cells [1, 5]: 0.11 ± 0.01 % dose/2 hr/10^5 cells plated
- Uptake by PC-3 cells ([1]; inhibitor none): 4.45 ± 0.46 % dose/2 hr/10^5 cells plated

Structure (SMILES): C[N+](C)(C[18F])CCCCO [Butanol]
- Uptake by PC-3 cells [1]: 0.140 ± 0.042 % dose/2 hr/10^5 cells plated

Structure (SMILES): CC(CO)[N+](C)(C)C[18F] (stereo not shown) [Tracer 2-methyl]
- Uptake by PC-3 cells ([1]; inhibitor none): 0.182 ± 0.016 % dose/2 hr/10^5 cells plated

Structure (SMILES): CC(C)C[N+](C)(C[18F])CCO (stereo not shown) [Isobutyl]
- Uptake by PC-3 cells ([1]; inhibitor none): 2.74 ± 0.09 % dose/2 hr/10^5 cells plated

Structure (SMILES): [2H]C([2H])(O)C[N+](C)(CC)C[18F] (stereo not shown) [FEDC]
- Uptake by PC-3 cells ([1]; inhibitor none): 0.720 ± 0.065 % dose/2 hr/10^5 cells plated

Structure (SMILES): [2H]C([2H])(O)C[N+](C)(C[18F])CCC (stereo not shown) [propyl - D]
- Uptake by PC-3 cells ([1]; inhibitor none): 1.864 ± 0.307 % dose/2 hr/10^5 cells plated

Structure (SMILES): C[N+](C)(C[18F])CCCO [FHC, [^18F]fluorohomocholine]
- uptake in cultured PC-3 cells [1]: ~2 %/hr/100,000 cells plated
- Uptake by PC-3 cells ([1]; inhibitor none): 1.635 ± 0.306 % dose/2 hr/10^5 cells plated
- tumor uptake [2]: ~0.07 % dose kg/g

Structure (SMILES): CC(O)C[N+](C)(C)C[18F] (stereo not shown) [Tracer 1-methyl]
- Uptake by PC-3 cells ([1]; inhibitor none): 0.202 ± 0.021 % dose/2 hr/10^5 cells plated

Structure (SMILES): OCC[N+](C[18F])(CCO)CCO [triethanol]
- Uptake by PC-3 cells ([1]; inhibitor none): 0.170 ± 0.045 % dose/2 hr/10^5 cells plated

Structure (SMILES): CC[N+](C)(C[18F])CCO (stereo not shown) [FEtC, [^18F]fluoromethylethylcholine]
- uptake in cultured PC-3 cells [1]: ~2 %/hr/100,000 cells plated
- Uptake by PC-3 cancer cells, HC-3 [1]: 0.12 ± 0.02 % dose/2 hr/105 cells plated
- accumulation by cultured PC-3 cells compared with other tracers [1]: higher than HARA-1 (p<0.05), but lower than FCH
- Uptake by PC-3 cancer cells, Control [1]: 0.74 ± 0.04 % dose/2 hr/105 cells plated
- Uptake by PC-3 cells [1, 5]: 0.122 ± 0.016 % dose/2 hr/10^5 cells plated
- Uptake by PC-3 cells ([1]; inhibitor none): 0.741 ± 0.041 % dose/2 hr/10^5 cells plated
- phosphorylation rate compared with CH [4]: equivalent to CH
- In vitro phosphorylation [4]: 55.2 ± 6.6%
- tumor uptake [2]: ~0.07 % dose kg/g

Structure (SMILES): CC[N+](CC)(C[18F])CCO [Diethyl]
- Uptake by PC-3 cells ([1]; inhibitor none): 0.503 ± 0.091 % dose/2 hr/10^5 cells plated

Structure (SMILES): CC[N+](C)(C[18F])CCCO (stereo not shown) [Ethyl-Prop.]
- Uptake by PC-3 cells ([1]; inhibitor none): 0.285 ± 0.023 % dose/2 hr/10^5 cells plated

Structure (SMILES): CCCC[N+](C)(C[18F])CCO (stereo not shown) [Butyl]
- Uptake by PC-3 cells ([1]; inhibitor none): 0.153 ± 0.021 % dose/2 hr/10^5 cells plated

Structure (SMILES): OCC[N+]1(C[18F])CCCC1 [cyclic 5N]
- Uptake by PC-3 cells ([1]; inhibitor none): 0.355 ± 0.028 % dose/2 hr/10^5 cells plated

Structure (SMILES): OCC[N+]1(C[18F])CCOCC1 [cyclic 6NO]
- Uptake by PC-3 cells ([1]; inhibitor none): 0.399 ± 0.014 % dose/2 hr/10^5 cells plated

Structure (SMILES): OCC[N+]1(C[18F])CCCCC1 [cyclic 6N]
- Uptake by PC-3 cells ([1]; inhibitor none): 0.144 ± 0.014 % dose/2 hr/10^5 cells plated

Structure (SMILES): C[N+](C[18F])(CCO)CCO [Diethanol]
- Uptake by PC-3 cells ([1]; inhibitor none): 0.462 ± 0.083 % dose/2 hr/10^5 cells plated

Structure (SMILES): C[N+](C[18F])(CCO)Cc1ccccc1 (stereo not shown) [benzyl]
- Uptake by PC-3 cells ([1]; inhibitor none): 0.202 ± 0.009 % dose/2 hr/10^5 cells plated

Structure (SMILES): CCC(C)[N+](C)(C[18F])CCO (stereo not shown) [Sec-butyl]
- Uptake by PC-3 cells ([1]; inhibitor none): 0.28 ± 0.01 % dose/2 hr/10^5 cells plated
